Common to all, as to assay: NCI anticancer screen, dose series, 48 h
The test system of assay [1] is HCT-15 colon.
In assay [2] the test system is IGROV1 ovarian.
Assay [3] deals with SNB-75 CNS.
Assay [4] relates to SF-295 CNS.
Assay [5] deals with ACHN renal.
Assay [6] relates to SR leukemia.
The subject of assay [7] is NCI-H522 lung.
Assay [8] has as its system UACC-62 melanoma.
The subject of assay [9] is EKVX NSCLC.
Assay [10] relates to MCF7 breast.

Molecules are shown by their SMILES. Several values for one entry are separate records, joined by “and”; a condition that tells them apart may be missing. Equal values may be shown once.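 Method: 48-hour compound exposure of cells in 96-well plates, five concentrations, linear interpolation of endpoints. GI50: concentration for 50% inhibition of growth. Definition used: TGI = concentration required for complete inhibition of growth.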

For `Cc1cc(Cl)n2c(nc3ccccc32)c1C#N`, the GI50 is 0.53 µM in assay [1]; 0.414 µM in assay [2]; 1.33 µM in assay [3]; 0.521 µM in assay [4]; 0.567 µM in assay [5]; 0.348 µM in assay [6]. Further, the GI50 was 0.235 µM in [7], 1.14 µM in [8], 7.84 µM in assay [9] and 0.158 µM in assay [10]. In addition, the TGI was determined as 4.12 µM in assay [1]; 1.82 µM in assay [2]; 8.53 µM in assay [3]; 4.91 µM in assay [4]; 1.84 µM in assay [5]; 24.2 µM in assay [6]. The TGI in assay [7] was determined as 1.22 µM; in assay [8], 3.66 µM; in [9], 24.8 µM; in assay [10], 2.3 µM.
As for `O=C(Nc1ccc(Cl)cc1)NS(=O)(=O)c1ccc2c(c1)CCC2`, the GI50 in assay [1] is 16.3 µg/mL; in assay [2], 4.37 µg/mL; in assay [3], 28.1 µg/mL; in assay [4], 12 µg/mL; in assay [5], 16.1 µg/mL; in assay [6] it was 19.3 µg/mL. Also, the GI50 is 4.86 µg/mL in assay [7], 15.9 µg/mL in assay [8] and 22.4 µg/mL in assay [9]. For the same molecule, the TGI in [1] is > 90.2 µM and 41.8 µg/mL; in assay [2] it was 94.3 µM and 18.7 µg/mL; in [3], > 100 µM and 64.7 µg/mL; in assay [4], > 100 µM and 31.9 µg/mL; in assay [5] it was > 100 µM and 49.6 µg/mL; in [6], > 100 µM and 91.6 µg/mL. Also, the TGI was 94.1 µM and 12.5 µg/mL in assay [7]; > 84.7 µM and 36.7 µg/mL in assay [8]; > 100 µM and 72.1 µg/mL in assay [9]; 81.8 µM in assay [10].
For `COc1ccc(C(=O)c2cc3c(N)c(C(=O)Nc4cccc(Cl)c4)sc3nc2C)cc1`, the GI50 in [1] is 1.32 µM; in [2], 1.76 µM; in assay [3], 0.743 µM; in assay [4] it was 1.08 µM; in assay [5] it was 2.12 µM; in assay [6], 1.15 µM. For the same molecule, the GI50 in [7] is 1.1 µM; in assay [8] it was 1.12 µM; in [9] it was 2.06 µM; in assay [10], 1.25 µM. For the same molecule, the TGI in [1] was above 33.3 µM; in assay [2] it was above 33.3 µM; in assay [3] it was 2.75 µM; in [4], above 33.3 µM; in assay [5], above 33.3 µM; in assay [6] it was above 33.3 µM. The TGI in assay [7], in [8], in assay [9] and in assay [10] was above 33.3 µM throughout.
For `CCOP1(=O)OCC2OC(n3cnc4c(N)ncnc43)C(O)C2O1` (centres undefined), the TGI in assay [1], in [2], in assay [3], in [4], in assay [5] and in assay [6] was above 100 µM throughout. In addition, the TGI in assay [7], in assay [8], in [9] and in assay [10] was above 100 µM throughout.
For `Nc1nc2nc3c(nc2c(=O)[nH]1)CN(c1ccc(C(=O)O)cc1)C3=O`, the TGI in [1], in assay [2], in [3], in assay [4], in assay [5] and in assay [6] was above 100 µM throughout. The TGI in [7], in assay [8], in assay [9] and in assay [10] was above 100 µM in each case.
Regarding `CC(=O)OCC1OC(n2cc(F)c(=O)[nH]c2=O)C(OC(C)=O)C1OC(C)=O` (centres undefined), the TGI in [1] was above 100 µM; in [2], above 100 µM; in assay [3], above 100 µM; in [4], above 100 µM; in assay [5], above 100 µM; in assay [6], above 78.5 µM. For the same molecule, the TGI is above 95.5 µM in [7], above 100 µM in [8], above 100 µM in assay [9] and above 45.3 µM in assay [10].
Take `Cc1ncc(C(=O)Nc2ccc(CN3CCN(C)CC3)c(C(F)(F)F)c2)cc1C#Cc1c(N)ncc2ccc(C#N)cc12`: the GI50 in [1] was 0.547 µM; in [2], 0.111 µM; in [3] it was 2.38 µM; in [4] it was above 26.7 µM; in [5], 0.293 µM; in assay [6], 1.42 µM. Besides, the GI50 in assay [7] was 1.61 µM; in [8], 0.0362 µM; in [9], 0.54 µM; in assay [10], 0.693 µM. For the same molecule, the TGI was 8.86 µM in assay [1]; 4 µM in [2]; 8.93 µM in assay [3]; above 50 µM in assay [4]; 3.35 µM in assay [5]; 12.2 µM in assay [6]. Also, the TGI in assay [7] is 21.7 µM; in assay [8] it was 6.1 µM; in [9], above 22.8 µM; in assay [10], 11.4 µM.
On to `CC1CN(CCO)CC(C)O1` (centres undefined), for which the TGI in assay [1], in assay [2], in [3], in [4], in assay [5] and in assay [6] was above 100 µM in each case. Besides, the TGI in [7], in [8], in assay [9] and in assay [10] was above 100 µM each time.
Turning to `C=C1C(=O)OC(CCCCCCCC)C1C(=O)O` (centres undefined), the GI50 in [1] was 15.9 µM; in assay [2], 21.8 µM; in [3], 16 µM; in assay [4], 17.6 µM; in assay [5], 17.2 µM; in assay [6] it was 5.57 µM. In addition, the GI50 in assay [7] is 7.57 µM; in assay [8], 12.1 µM; in [9] it was 16.1 µM; in assay [10], 12.6 µM. In addition, the TGI in [1] is 30.8 µM; in [2], 48.3 µM; in [3], 34.6 µM; in assay [4], 37.6 µM; in [5], 31 µM; in assay [6], 44.9 µM. Moreover, the TGI was 20.1 µM in assay [7], 24.7 µM in [8], 31.2 µM in [9] and 26.5 µM in [10].

Values taken from PubChem BioAssay (NCI).
